# Reference: doi:10.1101/572578v1 (biorxiv, 2019)
# What was measured:
# Assay in all cases: intrinsic fluorescence quenching titration
# Type in all cases: binding
# COMMD1 [1] = target: COMMD1 (Homo sapiens, UniProt Q8N668, T174M)
# COMMD1 [2] = target: COMMD1 (Homo sapiens, UniProt Q8N668, K167E/K173E)
# COMMD1 [3] = target: COMMD1 (Homo sapiens, UniProt Q8N668)
# Chain of COMMD1 (Homo sapiens, UniProt Q8N668) (Q8N668 whole entry): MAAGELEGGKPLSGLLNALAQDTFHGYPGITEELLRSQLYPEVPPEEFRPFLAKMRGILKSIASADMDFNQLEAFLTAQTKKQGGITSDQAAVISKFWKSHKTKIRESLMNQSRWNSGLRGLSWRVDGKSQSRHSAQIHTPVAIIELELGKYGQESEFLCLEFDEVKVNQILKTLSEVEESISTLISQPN
# Chain of COMMD1 (Homo sapiens, UniProt Q8N668, K167E/K173E) (Q8N668 whole entry K167E/K173E): as the sequence (Q8N668 whole entry) above, with K167E, K173E counted along it
# Chain of COMMD1 (Homo sapiens, UniProt Q8N668, T174M) (Q8N668 whole entry T174M): as the sequence (Q8N668 whole entry) above, with T174M counted along it
smiles,measurement,setting,value
"CCCCCC(=O)OC[C@H](COP(=O)(O)O[C@@H]1[C@H](O)[C@H](O)[C@@H](OP(=O)(O)O)[C@H](OP(=O)(O)O)[C@H]1O)OC(=O)CCCCC [PtdIns(4,5)P2]",Kd,COMMD1 [1],62.5 nM
same,Kd,COMMD1 [2],284 nM
same,Kd,COMMD1 [3],40.4 nM
